Test system: reuptake of all three monoamines
Test: monoamine reuptake inhibition profile (in words, with reference to Table 1)
Type: biochemical, rat
Settings: sibutramine through its pharmacologically active metabolites 1 and 2

## CC(C)CC(N(C)C)C1(c2ccc(Cl)cc2)CCC1 (stereo not shown) [sibutramine, N,N-dimethyl-1-[1-(4-chlorophenyl)cyclobutyl]-3-methylbutylamine]
  monoamine reuptake inhibition / selectivity in words: inhibits the reuptake of all three monoamines

— patent publication US6288125A, “Treatment of hiatial hernia” (Knoll Pharmaceuticals Company, priority 2000, dated 2001)
